The values below come from patent US9681664B2, “Macrocyclic picolinamides as fungicides” (Dow Agrosciences LLC, priority 2012, dated 2017).

The test system of assay [1] is Mycosphaerella graminicola; Anamorph: Septoria tritici. Nature of the assay: Leaf blotch of wheat (SEPTTR) disease control on wheat seedlings. It counts as in vivo. Conditions: for pest or weed control at 100 ppm / pest or weed control at 121.5 g/ha: Zymoseptoria tritici; for pest or weed control at 121.5 g/ha: low volume application, 121.5 g/H. An outline of the steps:
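Wheat seedlings (Yuma, first leaf emerged) sprayed to run-off with compound in acetone/water with 110 ppm Triton X-100, or track-sprayed as EC with 0.1% Trycol 5941. Septoria tritici spores inoculated before or after treatment. Dew chambers, then 20 °C greenhouse. Percent disease control derived from severity (0–100%) relative to untreated plants.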

Assay [2] concerns Puccinia triticina; Synonym: Puccinia recondite f. sp. tritici. Description: Wheat brown rust (PUCCRT) disease control on wheat seedlings. It is filed as in vivo. Conditions: for pest or weed control at 100 ppm / pest or weed control at 121.5 g/ha: Puccinia triticina; for pest or weed control at 121.5 g/ha: low volume application, 121.5 g/H. An outline of the steps:
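Acetone solutions diluted in nine volumes of water with 110 ppm Triton X-100 sprayed to run-off on first-leaf Yuma wheat seedlings (track spray: EC with 0.1% Trycol 5941). Puccinia triticina spores inoculated before or after treatment; overnight dark dew at 22° C., 100% RH, then greenhouse at 24° C. for disease development.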

The mark [3] stands for this setting: 24 h, High volume application, 100 ppm, 1 Day Protectant, read-out: SEPTTR 1DP disease control.
Where [4] appears, read: 72 h, High volume application, 100 ppm, 3 Day Curative, read-out: SEPTTR 3DC disease control.
Where [5] appears, read: 24 h, High volume application, 100 ppm, 1 Day Protectant, read-out: PUCCRT 1DP disease control.
The mark [6] stands for this setting: 72 h, High volume application, 100 ppm, 3 Day Curative, read-out: PUCCRT 3DC disease control.
Setting [7] is: 24 h, Wheat Leaf Blotch, 1 Day Protectant, high volume application, 100 ppm, read-out: Disease Control SEPTTR 1 DP 100 ppm.
Where [8] appears, read: 72 h, Wheat Leaf Blotch, 3 Day Curative, high volume application, 100 ppm, read-out: Disease Control SEPTTR 3 DC 100 ppm.
Setting [9] is: 24 h, Wheat Brown Rust, 1 Day Protectant, high volume application, 100 ppm, read-out: Disease Control PUCCRT 1 DP 100 ppm.
The mark [10] stands for this setting: 72 h, Wheat Brown Rust, 3 Day Curative, high volume application, 100 ppm, read-out: Disease Control PUCCRT 3 DC 100 ppm.
The mark [11] stands for this setting: High volume application, 100 ppm, 1 Day Protectant.
The mark [12] stands for this setting: High volume application, 100 ppm, 3 Day Curative.

Where two headings read alike, the source gives them in different places.

For `CCCO[C@H]1[C@H](C)OC(=O)[C@@H](NC(=O)c2nccc(OC)c2OCOC(C)=O)CCC[C@@H]1OC1CCCC1` [F121], the pest or weed control at 100 ppm in assay [1] (setting [3]), in assay [1] (setting [4]), in assay [2] (setting [5]) and in assay [2] (setting [6]) was 80 to 100% each time.
As to `COc1ccnc(C(=O)N[C@H]2CCC[C@H](OCC(C)C)[C@@H](OCCCc3ccccc3)[C@H](C)OC2=O)c1O` [F40], the pest or weed control at 100 ppm lay in the range of 0 to 80% in assay [1] (setting [3]), 0 to 80% in assay [1] (setting [4]), 80 to 100% in assay [2] (setting [5]) and 80 to 100% in assay [2] (setting [6]).
As for `COc1ccnc(C(=O)N[C@H]2CCC[C@H](OCC(C)C)[C@@H](OC(=O)C3CC3)[C@H](C)OC2=O)c1OC(C)=O` [F42], the pest or weed control at 100 ppm in assay [1] (setting [3]), in assay [1] (setting [4]), in assay [2] (setting [5]) and in assay [2] (setting [6]) was 80 to 100% in each case.
Regarding `COc1ccnc(C(=O)N[C@H]2CCC[C@H](Oc3ccccc3)[C@@H](OC)[C@H](C)OC2=O)c1O` [F249], the pest or weed control at 100 ppm lay within 0 to 80% in assay [1] (setting [7]), 0 to 80% in assay [1] (setting [8]), 80 to 100% in assay [2] (setting [9]) and 80 to 100% in assay [2] (setting [10]).
Take `COc1ccnc(C(=O)N[C@H]2CCC[C@H](Oc3ccccc3)[C@@H](OCCCC(F)(F)F)[C@H](C)OC2=O)c1O` [F105]: the pest or weed control at 100 ppm in assay [1] (setting [3]) was 80 to 100%; in assay [1] (setting [4]), 0 to 80%; in assay [2] (setting [5]) it was 80 to 100%; in assay [2] (setting [6]), < 0%.
Regarding `COc1ccc(O[C@H]2CCC[C@H](NC(=O)c3nccc(OC)c3OCOC(=O)C(C)C)C(=O)O[C@@H](C)[C@@H]2OCC(C)C)cc1` [F69], the pest or weed control at 100 ppm in assay [1] (setting [3]), in assay [1] (setting [4]), in assay [2] (setting [5]) and in assay [2] (setting [6]) was 80 to 100% each time.
On to `COc1ccnc(C(=O)N[C@H]2CCC[C@H](OCC(C)C)[C@@H](OC(=O)C3CCCC3)[C@H](C)OC2=O)c1OCOC(=O)C(C)C` [F218], for which the pest or weed control at 100 ppm in assay [1] (setting [3]) lay in the range of 80 to 100%; in assay [1] (setting [4]) it was 0 to 80%; in assay [2] (setting [5]), 80 to 100%; in assay [2] (setting [6]) it was 80 to 100%.
In the case of `CCCO[C@H]1CCC[C@H](NC(=O)c2nccc(OC)c2O)C(=O)O[C@@H](C)[C@@H]1OC1CCCC1` [F153], the pest or weed control at 100 ppm in assay [1] (setting [3]), in assay [1] (setting [4]), in assay [2] (setting [5]) and in assay [2] (setting [6]) was 80 to 100% each time.
Regarding `COc1ccnc(C(=O)N[C@H]2CCC[C@H](OCC(C)C)[C@@H](Oc3ccc(F)cc3)[C@H](C)OC2=O)c1OCOC(=O)C(C)C` [F62], the pest or weed control at 100 ppm in assay [1] (setting [3]), in assay [1] (setting [4]), in assay [2] (setting [5]) and in assay [2] (setting [6]) was 80 to 100% in each case.
Turning to `COc1ccnc(C(=O)N[C@H]2CCC[C@H](OCCCC(F)(F)F)[C@@H](OCCCC(F)(F)F)[C@H](C)OC2=O)c1O` [F85], the pest or weed control at 100 ppm in assay [1] (setting [3]) was < 0%; in assay [1] (setting [4]) it was 0 to 80%; in assay [2] (setting [5]), < 0%; in assay [2] (setting [6]), 0 to 80%.
As for `COc1ccnc(C(=O)N[C@H]2CCC[C@H](OC3CCCC3)[C@@H](Oc3ccccc3)[C@H](C)OC2=O)c1O` [F74], the pest or weed control at 100 ppm in assay [1] (setting [3]), in assay [1] (setting [4]), in assay [2] (setting [5]) and in assay [2] (setting [6]) was 80 to 100% in each case.
Regarding `CCCO[C@H]1CCC[C@H](NC(=O)c2nccc(OC)c2O)C(=O)O[C@@H](C)[C@@H]1Oc1ccc(-c2ccccc2)cc1` [F283], the pest or weed control at 100 ppm in assay [1] (setting [7]) is 80 to 100%; in assay [1] (setting [8]), 0 to 80%; in assay [2] (setting [9]), 80 to 100%; in assay [2] (setting [10]), 0 to 80%.
On to `COc1ccnc(C(=O)N[C@H]2CCC[C@H](OCC(C)C)[C@@H](OCCCC(F)(F)F)[C@H](C)OC2=O)c1OCOC(=O)C(C)C` [F51], for which the pest or weed control at 100 ppm in assay [1] (setting [3]), in assay [1] (setting [4]), in assay [2] (setting [5]) and in assay [2] (setting [6]) was 80 to 100% throughout.
With `COc1ccnc(C(=O)N[C@H]2CCC[C@H](OC3CCCCC3)[C@@H](OCC(C)C)[C@H](C)OC2=O)c1O` [F211], the pest or weed control at 100 ppm in assay [1] (setting [3]), in assay [1] (setting [4]), in assay [2] (setting [5]) and in assay [2] (setting [6]) was 80 to 100% in each case.
As to `COc1ccnc(C(=O)N[C@H]2CCC[C@H](Oc3ccccc3)[C@@H](OC(=O)C3CCCC3)[C@H](C)OC2=O)c1OC(C)=O` [F235], the pest or weed control at 100 ppm in assay [1] (setting [7]), in assay [1] (setting [8]), in assay [2] (setting [9]) and in assay [2] (setting [10]) was 80 to 100% in each case. The pest or weed control at 121.5 g/ha in assay [1] (24 h, Wheat Leaf Blotch, 1 Day Protectant, read-out: Disease Control SEPTTR 1 DP 121.5 g/H) lay in the range of 80 to 100%; in assay [1] (72 h, Wheat Leaf Blotch, 3 Day Curative, read-out: Disease Control SEPTTR 3 DC 121.5 g/H) it was 0 to 80%; in assay [2] (24 h, Wheat Brown Rust, 1 Day Protectant, read-out: Disease Control PUCCRT 1 DP 121.5 g/H), 80 to 100%; in assay [2] (72 h, Wheat Brown Rust, 3 Day Curative, read-out: Disease Control PUCCRT 3 DC 121.5 g/H), 0 to 80%.
Take `COc1ccnc(C(=O)N[C@H]2CCC[C@H](Oc3ccccc3)[C@@H](OCCCC(F)(F)F)[C@H](C)OC2=O)c1OCOC(C)=O` [F107]: the pest or weed control at 100 ppm in assay [1] (setting [3]), in assay [1] (setting [4]), in assay [2] (setting [5]) and in assay [2] (setting [6]) was 80 to 100% each time.
Take `CCCCCO[C@H]1[C@H](C)OC(=O)[C@@H](NC(=O)c2nccc(OC)c2OCOC(=O)C(C)C)CCC[C@@H]1Oc1ccccc1` [F98]: the pest or weed control at 100 ppm in assay [1] (setting [3]), in assay [1] (setting [4]), in assay [2] (setting [5]) and in assay [2] (setting [6]) was 80 to 100% in each case.
As for `CCCCCO[C@H]1[C@H](C)OC(=O)[C@@H](NC(=O)c2nccc(CC)c2O)CCC[C@@H]1OCC(C)C` [F70], the pest or weed control at 100 ppm in assay [1] (setting [3]), in assay [1] (setting [4]), in assay [2] (setting [5]) and in assay [2] (setting [6]) was 0 to 80% each time.
Consider `CCCO[C@H]1CCC[C@H](NC(=O)c2nccc(OC)c2O)C(=O)O[C@@H](C)[C@@H]1Oc1cccc(Cl)c1` [F272], for which the pest or weed control at 100 ppm in assay [1] (setting [7]), in assay [1] (setting [8]), in assay [2] (setting [9]) and in assay [2] (setting [10]) was 80 to 100% in each case.
On to “[2-[[(3S,7S,8S,9S)-8-isobutoxy-9-methyl-7-(2-methylallyloxy)-2-oxo-oxonan-3-yl]carbamoyl]-4-methoxy-3-pyridyl]acetate [F18]”, for which the “SEPTTR 1DP disease control” value in assay [1] (setting [11]) is “A (80-100)”. Besides, in assay [1] (setting [12]), the “SEPTTR 3DC disease control” value is listed as “A (80-100)”. The “PUCCRT 1DP disease control” value in assay [2] (setting [11]) is given as “A (80-100)”. Also, the “PUCCRT 3DC disease control” value in assay [2] (setting [12]) is “A (80-100)”.
Consider `COc1ccnc(C(=O)N[C@H]2CCC[C@H](OC3CCCC3)[C@@H](OC(=O)C3CC3)[C@H](C)OC2=O)c1OCOC(C)=O` [F144], for which the pest or weed control at 100 ppm in assay [1] (setting [3]), in assay [1] (setting [4]), in assay [2] (setting [5]) and in assay [2] (setting [6]) was 80 to 100% each time.
Regarding `COc1ccnc(C(=O)N[C@H]2CCC[C@H](OC3CCCC3)[C@@H](OC(=O)C3CCCC3)[C@H](C)OC2=O)c1OCOC(C)=O` [F148], the pest or weed control at 100 ppm in assay [1] (setting [3]), in assay [1] (setting [4]), in assay [2] (setting [5]) and in assay [2] (setting [6]) was 80 to 100% throughout.
For `COc1ccnc(C(=O)N[C@H]2CCC[C@H](OC3CCCC3)[C@@H](OCC(C)C)[C@H](C)OC2=O)c1OCOC(=O)C(C)C` [F124], the pest or weed control at 100 ppm in assay [1] (setting [3]), in assay [1] (setting [4]), in assay [2] (setting [5]) and in assay [2] (setting [6]) was 80 to 100% each time.
Regarding `CCCO[C@H]1[C@H](C)OC(=O)[C@@H](NC(=O)c2nccc(OC)c2O)CCC[C@@H]1OCCC` [F114], the pest or weed control at 100 ppm in assay [1] (setting [3]), in assay [1] (setting [4]), in assay [2] (setting [5]) and in assay [2] (setting [6]) was 80 to 100% throughout.
In the case of `COc1ccnc(C(=O)N[C@H]2CCC[C@H](OCC(C)C)[C@@H](Oc3ccc(C)cc3)[C@H](C)OC2=O)c1OCOC(C)=O` [F86], the pest or weed control at 100 ppm in assay [1] (setting [3]), in assay [1] (setting [4]), in assay [2] (setting [5]) and in assay [2] (setting [6]) was 80 to 100% each time.
